Reference: article PMC12862769 (ACS infectious diseases, 2025)
Converted amounts (≈) assume the structure as drawn. Where two headings read alike, the source gives them in different places.

How the values were obtained:
[1] = test system: Bacillus subtilis ATCC11774; assay: MIC assay; format: cell-based
[2] = test system: E. faecium NR-28978; details: cited from earlier work
[3] = test system: E. faecium NR-31916; details: cited from earlier work
[4] = test system: E. faecium HM-965; assay: MIC assay; format: cell-based
[5] = test system: all tested Enterococcus strains; assay: MIC assay, all tested Enterococcus strains; format: cell-based
[6] = test system: E. faecium NR-31903; details: cited from earlier work
[7] = test system: E. faecium NR-31914; details: cited from earlier work
[8] = test system: E. faecalis and E. faecium strains; assay: MIC assay, panel of 25 E. faecalis and E. faecium strains; format: cell-based
[9] = test system: E. faecium NR-31909; assay: Multi-step resistance selection assay; format: cell-based; details: starting passage 13
[10] = test system: E. gallinarum ATCC 49373; assay: MIC assay; format: cell-based
[11] = test system: E. faecium NR-32052; details: cited from earlier work
[12] = test system: E. faecalis NR-31972; details: cited from earlier work
[13] = test system: mouse gut microbiome; assay: Mouse gut microbiome diversity in fecal pellets; format: in vivo, C57BL/6 mice; details: 20 mg/kg PO QD; CAI0019 days 7 or 14, linezolid day 7, vs pre-treatment
[14] = test system: E. faecalis HM-201; assay: MIC assay; format: cell-based
[15] = test system: E. faecalis NR-31971; details: cited from earlier work
[16] = test system: E. hirae ATCC 10541; assay: MIC assay; format: cell-based
[17] = test system: E. faecalis HM-334; details: cited from earlier work
[18] = test system: E. faecium NR-31954; assay: MIC assay; format: cell-based
[19] = test system: E. faecium NR-31909; assay: MIC assay; format: cell-based
[20] = test system: E. faecium NR-31937; assay: MIC assay; format: cell-based
[21] = test system: E. faecium NR-31933; assay: MIC assay; format: cell-based
[22] = test system: E. casseliflavus ATCC 700327; assay: MIC assay; format: cell-based
[23] = test system: E. faecium HM-970; assay: MIC assay; format: cell-based
[24] = test system: Listeria Monocytogenes ATCC 19111; assay: MIC assay; format: cell-based
[25] = test system: E. avium ATCC 14025; assay: MIC assay; format: cell-based
[26] = test system: E. raffinosus ATCC 49464; assay: MIC assay; format: cell-based
[27] = test system: E. durans ATCC 11576; assay: MIC assay; format: cell-based
[28] = test system: E. saccharolyticus ATCC 43076; assay: MIC assay; format: cell-based
[29] = test system: E. faecium NR-32065; details: cited from earlier work
[30] = test system: E. faecium HM-952; assay: MIC assay; format: cell-based
[31] = test system: E. faecium ATCC 700221; assay: MIC assay; format: cell-based
[32] = test system: E. faecium NR-32053; assay: MIC assay; format: cell-based
[33] = test system: E. faecium NR-31909; assay: E. faecium septicemic peritonitis mouse model; format: in vivo, BALB/c mice
[34] = test system: E. faecalis NR-31970; assay: MIC assay; format: cell-based
[35] = test system: E. faecium HM-968; details: cited from earlier work
[36] = test system: E. faecalis HM-934; assay: MIC assay; format: cell-based
[37] = test system: Staphylococcus epidermidis NRS101; assay: MIC assay; format: cell-based
[38] = test system: E. faecalis HM-335; details: cited from earlier work
[39] = test system: E. faecium NR-31912; assay: MIC assay; format: cell-based
[40] = test system: Staphylococcus aureus USA300; assay: MIC assay; format: cell-based
[41] = test system: E. faecium NR-32094; assay: MIC assay; format: cell-based
[42] = 5% CO2 atmosphere at 37° C, no CAs, expresses MpsAB homologs

CC(=O)NC[C@H]1CN(c2ccc(N3CCOCC3)c(F)c2)C(=O)O1 [LNZ, linezolid]
MIC ([1]; 5% CO2 atmosphere at 37° C, encodes both MpsAB and CAs): 1.48 µM (≈ 0.499 µg/mL)
MIC ([1]; Bacillus subtilis, ATCC11774): 1.48 µM (≈ 0.499 µg/mL)
MIC ([2]; 5% CO2 atmosphere at 37° C): 2.96 µM (≈ 0.999 µg/mL)
MIC ([2]; ambient air at 37° C): 2.96 µM (≈ 0.999 µg/mL)
MIC ([3]; 5% CO2 atmosphere at 37° C): 2.96 µM (≈ 0.999 µg/mL)
MIC ([3]; ambient air at 37° C): 2.96 µM (≈ 0.999 µg/mL)
MIC ([4]; 5% CO2 atmosphere at 37° C): 2.96 µM (≈ 0.999 µg/mL)
MIC ([4]; Enterococcus faecium, HM965): 2.96 µM (≈ 0.999 µg/mL)
MIC shift in the presence of CO2 ([5]; 5% CO2 versus ambient air): no MIC shift
MIC50 ([5]; Enterococcus, read-out: All Enterococci spp. MIC50): 2.96 µM (≈ 0.999 µg/mL)
MIC90 ([5]; Enterococcus, read-out: All Enterococci spp. MIC90): 2.96 µM (≈ 0.999 µg/mL)
MIC ([6]; 5% CO2 atmosphere at 37° C): 47.4 µM (≈ 16 µg/mL)
MIC ([6]; ambient air at 37° C): 47.4 µM (≈ 16 µg/mL)
MIC ([7]; 5% CO2 atmosphere at 37° C): 2.96 µM (≈ 0.999 µg/mL)
MIC ([7]; ambient air at 37° C): 2.96 µM (≈ 0.999 µg/mL)
MIC50 ([8]; read-out: Ef MIC50): 2.96 µM (≈ 0.999 µg/mL)
MIC90 ([8]; read-out: Ef MIC90): 2.96 µM (≈ 0.999 µg/mL)
MIC increase [9]: 2 fold MIC
MIC ([10]; 5% CO2 atmosphere at 37° C): 2.96 µM (≈ 0.999 µg/mL)
MIC ([10]; Enterococcus gallinarum, ATCC49373|GALLINARUM): 2.96 µM (≈ 0.999 µg/mL)
MIC ([11]; 5% CO2 atmosphere at 37° C): 1.48 µM (≈ 0.499 µg/mL)
MIC ([11]; ambient air at 37° C): 1.48 µM (≈ 0.499 µg/mL)
MIC ([12]; 5% CO2 atmosphere at 37° C): 2.96 µM (≈ 0.999 µg/mL)
MIC ([12]; ambient air at 37° C): 1.48 µM (≈ 0.499 µg/mL)
change in microbiome diversity in fecal samples [13]: no significant change
MIC ([14]; 5% CO2 atmosphere at 37° C): 2.96 µM (≈ 0.999 µg/mL)
MIC ([14]; Enterococcus faecalis, HM201): 2.96 µM (≈ 0.999 µg/mL)
MIC ([15]; 5% CO2 atmosphere at 37° C): 2.96 µM (≈ 0.999 µg/mL)
MIC ([15]; ambient air at 37° C): 2.96 µM (≈ 0.999 µg/mL)
MIC ([16]; 5% CO2 atmosphere at 37° C): 2.96 µM (≈ 0.999 µg/mL)
MIC ([16]; Enterococcus hirae, ATCC10541): 2.96 µM (≈ 0.999 µg/mL)
MIC ([17]; 5% CO2 atmosphere at 37° C): 2.96 µM (≈ 0.999 µg/mL)
MIC ([17]; ambient air at 37° C): 2.96 µM (≈ 0.999 µg/mL)
MIC ([18]; 5% CO2 atmosphere at 37° C): 2.96 µM (≈ 0.999 µg/mL)
MIC ([18]; Enterococcus faecium, NR31954): 2.96 µM (≈ 0.999 µg/mL)
MIC ([19]; 5% CO2 atmosphere at 37° C): 2.96 µM (≈ 0.999 µg/mL)
MIC ([19]; Enterococcus faecium, NR31909): 2.96 µM (≈ 0.999 µg/mL)
MIC ([20]; 5% CO2 atmosphere at 37° C): 2.96 µM (≈ 0.999 µg/mL)
MIC ([20]; Enterococcus faecium, NR31937): 2.96 µM (≈ 0.999 µg/mL)
MIC ([21]; 5% CO2 atmosphere at 37° C): 2.96 µM (≈ 0.999 µg/mL)
MIC ([21]; Enterococcus faecium, NR31933): 2.96 µM (≈ 0.999 µg/mL)
MIC ([22]; 5% CO2 atmosphere at 37° C): 2.96 µM (≈ 0.999 µg/mL)
MIC ([22]; Enterococcus casseliflavus, ATCC700327): 2.96 µM (≈ 0.999 µg/mL)
MIC ([23]; 5% CO2 atmosphere at 37° C): 2.96 µM (≈ 0.999 µg/mL)
MIC ([23]; Enterococcus faecium, HM970): 2.96 µM (≈ 0.999 µg/mL)
MIC ([24]; 5% CO2 atmosphere at 37° C, encodes only α-CA, no MpsAB homologs): 2.96 µM (≈ 0.999 µg/mL)
MIC ([24]; Listeria monocytogenes, ATCC19111): 2.96 µM (≈ 0.999 µg/mL)
MIC ([25]; 5% CO2 atmosphere at 37° C): 2.96 µM (≈ 0.999 µg/mL)
MIC ([25]; Enterococcus avium, ATCC14025): 2.96 µM (≈ 0.999 µg/mL)
MIC ([26]; 5% CO2 atmosphere at 37° C): 2.96 µM (≈ 0.999 µg/mL)
MIC ([26]; Enterococcus raffinosus, ATCC49464): 2.96 µM (≈ 0.999 µg/mL)
MIC ([27]; 5% CO2 atmosphere at 37° C): 2.96 µM (≈ 0.999 µg/mL)
MIC ([27]; Enterococcus durans, ATCC11576): 2.96 µM (≈ 0.999 µg/mL)
MIC [28]: 2.96 µM (≈ 0.999 µg/mL)
MIC ([28]; 5% CO2 atmosphere at 37° C): 2.96 µM (≈ 0.999 µg/mL)
MIC ([29]; 5% CO2 atmosphere at 37° C): 1.48 µM (≈ 0.499 µg/mL)
MIC ([29]; ambient air at 37° C): 0.74 µM (≈ 0.25 µg/mL)
MIC ([30]; 5% CO2 atmosphere at 37° C): 2.96 µM (≈ 0.999 µg/mL)
MIC ([30]; Enterococcus faecium, HM952): 2.96 µM (≈ 0.999 µg/mL)
MIC ([31]; 5% CO2 atmosphere at 37° C): 2.96 µM (≈ 0.999 µg/mL)
MIC ([31]; Enterococcus faecium, ATCC700221): 2.96 µM (≈ 0.999 µg/mL)
MIC ([32]; 5% CO2 atmosphere at 37° C): 2.96 µM (≈ 0.999 µg/mL)
MIC ([32]; Enterococcus faecium, NR32053): 2.96 µM (≈ 0.999 µg/mL)
survival (mice rescued) ([33]; 20 mg/kg PO once-daily for three days, n = 6/group): 83%
reduction of VRE bioburden compared to vehicle ([33]; kidney, liver and spleen, each tissue, 20 mg/kg PO QD three days): at least 2 Log10 CFU/mL
reduction of VRE bioburden ([33]; kidney, liver and spleen, three-day treatment): > 99%
MIC ([34]; 5% CO2 atmosphere at 37° C): 2.96 µM (≈ 0.999 µg/mL)
MIC ([34]; Enterococcus faecalis, NR31970): 2.96 µM (≈ 0.999 µg/mL)
MIC ([35]; 5% CO2 atmosphere at 37° C): 2.96 µM (≈ 0.999 µg/mL)
MIC ([35]; ambient air at 37° C): 1.48 µM (≈ 0.499 µg/mL)
MIC ([36]; 5% CO2 atmosphere at 37° C): 2.96 µM (≈ 0.999 µg/mL)
MIC ([36]; Enterococcus faecalis, HM934): 2.96 µM (≈ 0.999 µg/mL)
MIC [37, 42]: 2.96 µM (≈ 0.999 µg/mL)
MIC ([37]; Staphylococcus epidermidis, NRS101): 2.96 µM (≈ 0.999 µg/mL)
MIC ([38]; 5% CO2 atmosphere at 37° C): 2.96 µM (≈ 0.999 µg/mL)
MIC ([38]; ambient air at 37° C): 1.48 µM (≈ 0.499 µg/mL)
MIC ([39]; 5% CO2 atmosphere at 37° C): 2.96 µM (≈ 0.999 µg/mL)
MIC ([39]; Enterococcus faecium, NR31912): 2.96 µM (≈ 0.999 µg/mL)
MIC [40, 42]: 1.48 µM (≈ 0.499 µg/mL)
MIC ([40]; Staphylococcus aureus, USA300): 1.48 µM (≈ 0.499 µg/mL)
MIC ([41]; 5% CO2 atmosphere at 37° C): 1.48 µM (≈ 0.499 µg/mL)
MIC ([41]; Enterococcus faecium, NR32094): 1.48 µM (≈ 0.499 µg/mL)
